Experimental data taken from patent publication US20250099420A1, “SMALL MOLECULE MODULATORS OF GPR139 COMPLEX” (University of Florida Research Foundation, Incorporated, priority 2022, published 2025).
Where two headings read alike, the source gives them in different places.

Assays:
parental HEK cells = test: HEK parental Agonist Counterscreen Assay (non-transfected cells); format: cell-based; settings: for Averaged Max % Response (±St. Dev.): activity relative to known control
From the text: The high control for the agonist counterscreen was Forskolin not acetylcholine.

GPR139 = target: T1, GPR139 (Homo sapiens, UniProt Q6DWJ6); test: GPR139 Agonist titration / agonist counterscreen assay (calcium detection, HEK-GPR139 cells); format: cell-based; design: expressed in transfected cells; host or cells: HEK Aequorin cells, Maxcyte transient transfection; settings: GPR139 Agonist Activity; for Averaged Max % Response (±St. Dev.): activity relative to known control; for EC50: read-out: EC50
T1 sequence (Q6DWJ6 1-353): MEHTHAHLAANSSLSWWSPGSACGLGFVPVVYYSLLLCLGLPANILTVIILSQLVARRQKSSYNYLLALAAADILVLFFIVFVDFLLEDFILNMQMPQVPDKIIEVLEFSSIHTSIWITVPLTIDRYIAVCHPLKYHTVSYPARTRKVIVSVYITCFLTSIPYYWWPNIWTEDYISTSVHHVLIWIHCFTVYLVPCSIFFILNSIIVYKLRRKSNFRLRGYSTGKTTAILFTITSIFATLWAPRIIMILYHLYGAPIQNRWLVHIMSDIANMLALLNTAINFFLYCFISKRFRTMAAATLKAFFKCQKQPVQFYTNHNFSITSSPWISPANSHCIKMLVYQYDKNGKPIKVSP
Experimental: GPR activity was assessed using a calcium detection assay. […] Negative control samples were treated with DMSO. […] Intracellular calcium was measured using Calcium 5.

[1] = Homo sapiens, HEK293, HEK Agonist Activity section of Table 4 (parental HEK counterscreen)
[2] = HEK Agonist Activity section of Table 4 (parental HEK counterscreen)
[3] = values printed in E-notation without unit
[4] = Homo sapiens, HEK293, HEK Agonist Activity, parental non-transfected HEK cells

Lipophilic Efficiency (logD) (parental HEK cells; HEK Agonist Activity section)	Lipophilic Efficiency (logP) (parental HEK cells; HEK Agonist Activity section)	Efficiency Ligand (GPR139)	Hill Slope (GPR139)	Lipophilic Efficiency (logD) (GPR139)	Lipophilic Efficiency (logP) (GPR139)	Averaged Max % Response (±St. Dev.) (GPR139) [%]	Lipophilic Efficiency (logD) (GPR139; based on logD)	Lipophilic Efficiency (logP) (GPR139; based on logP)	Hill Slope (GPR139; fitted dose-response curve)	Efficiency Ligand (GPR139; ligand efficiency)	EC50 (GPR139; [3]) [nM]	SMILES	Averaged Max % Response (±St. Dev.) (parental HEK cells; HEK Agonist Activity section) [%]	EC50 (parental HEK cells; [1]) [nM]	also measured
1.36	1.36	0.30	0.53	2.60	2.60	116.44 ± 14.37	–	–	–	–	–	CC(CCC(=O)C12CC3CC(CC(C3)C1)C2)CCc1ccc2ccccc2c1 (stereo not drawn) [SR-01000359546]	3.46 ± 3.80	> 14100	–
–	–	–	–	–	–	100.43 ± 4.95	4.82	4.81	0.91	0.38	6.7	Cc1onc(-c2ccccc2Cl)c1C(=O)NNC(=O)CSc1ccccc1[N+](=O)[O-] [SR-01000633083]	–	–	Lipophilic Efficiency (logD) (parental HEK cells; HEK Agonist Activity): 1.49; Lipophilic Efficiency (logP) (parental HEK cells; HEK Agonist Activity): 1.48; Averaged Max % Response (±St. Dev.) (parental HEK cells; HEK Agonist Activity): 21.09 ± 6.01%; EC50 (parental HEK cells; [4]): > 14100 nM
–	–	–	–	–	–	114.27 ± 15.21	4.70	4.70	1.01	0.44	12.3	Cc1cc(Cl)ccc1OCC(=O)NNC(=O)C1CC1c1ccccc1 (stereo not drawn) [SR-01000317486]	–	–	Lipophilic Efficiency (logD) (parental HEK cells; HEK Agonist Activity): 1.64; Lipophilic Efficiency (logP) (parental HEK cells; HEK Agonist Activity): 1.64; Averaged Max % Response (±St. Dev.) (parental HEK cells; HEK Agonist Activity): 3.86 ± 3.87%; EC50 (parental HEK cells; [4]): > 14100 nM
1.71	1.66	–	–	–	–	100.37 ± 4.50	3.80	3.75	0.87	0.39	114	CC(Oc1ccc(Cl)cc1Cl)C(=O)NNC(=O)COc1ccccc1 (stereo not drawn) [SR-01000370374]	4.76 ± 6.67	> 14100	–
−0.052	−0.052	–	–	–	–	103.05 ± 12.22	1.92	1.92	0.41	0.23	145	CSc1cccc(NC(=O)C2C3C=CC4(O3)C2C(=O)N(C(C)c2ccccc2)C4C(=O)NC2CCCC(C)C2C)c1 (stereo not drawn) [SR-01000545824]	−0.19 ± 3.69	–	EC50 (parental HEK cells; [2]): > 13600 nM
3.42	3.42	0.31	0.79	4.98	4.98	69.93 ± 11.99	–	–	–	–	–	CCCC(=O)C1CCC(C(=O)CC2CCC(c3ccc(C(C)O)cc3)C2=O)CC1 (stereo not drawn) [SR-01000924775]	10.92 ± 3.68	> 14100	EC50 (GPR139; HEK-GPR139 cells): 387 nM
1.42	1.29	–	–	–	–	115.41 ± 10.16	3.51	3.38	0.89	0.28	110	COc1ccc(CCNC(=O)c2ccnc(N3CCN(Cc4ccc5c(c4)OCO5)CC3)c2)cc1 [SR-01000654192]	14.64 ± 17.11	–	EC50 (parental HEK cells; [2]): > 13300 nM
1.32	1.32	–	–	–	–	113.63 ± 16.89	3.06	3.06	0.65	0.40	252	O=C(Cn1ncc2c(Cl)cccc21)NCCc1ccc(Cl)cc1 [SR-01000155030]	10.75 ± 8.11	> 14100	–
1.70	1.70	0.38	1.89	2.80	2.80	93.85 ± 32.13	–	–	–	–	–	O=c1c2c([nH]c3nc(NCc4ccccc4Cl)nn13)CCC2 [SR-01000153956]	21.15 ± 4.99	> 14100	EC50 (GPR139; HEK-GPR139 cells): 1100 nM

The remaining lines, values behind:

SMILES	Lipophilic Efficiency (logD) (parental HEK cells; HEK Agonist Activity section)	Lipophilic Efficiency (logP) (parental HEK cells; HEK Agonist Activity section)	Efficiency Ligand (GPR139)	Hill Slope (GPR139)	Lipophilic Efficiency (logD) (GPR139)	Lipophilic Efficiency (logP) (GPR139)	Averaged Max % Response (±St. Dev.) (GPR139) [%]	Lipophilic Efficiency (logD) (GPR139; based on logD)	Lipophilic Efficiency (logP) (GPR139; based on logP)	Hill Slope (GPR139; fitted dose-response curve)	Efficiency Ligand (GPR139; ligand efficiency)	EC50 (GPR139; [3]) [nM]	Averaged Max % Response (±St. Dev.) (parental HEK cells; HEK Agonist Activity section) [%]	EC50 (parental HEK cells; [1]) [nM]	also measured
COc1ccc(CCC(=O)Nc2ccc(/C(N)=N/O)cc2)cc1 [SR-01000103876]	2.61	2.60	–	–	–	–	114.46 ± 17.21	4.50	4.50	0.82	0.41	179	1.17 ± 3.96	–	EC50 (parental HEK cells; [2]): > 14100 nM
CC(C(=O)NCCc1ccc(Cl)cc1)n1ncn2cccc2c1=O (stereo not drawn) [SR-01000140260]	–	–	–	–	–	–	114.94 ± 7.97	6.86	6.86	0.54	0.52	1.3	–	–	Lipophilic Efficiency (logD) (parental HEK cells; HEK Agonist Activity): 2.84; Lipophilic Efficiency (logP) (parental HEK cells; HEK Agonist Activity): 2.84; Averaged Max % Response (±St. Dev.) (parental HEK cells; HEK Agonist Activity): 19.72 ± 7.61%; EC50 (parental HEK cells; HEK Agonist Activity, parental non-transfected HEK cells): > 14100 nM
O=C(Cn1ncc2c1-c1ccccc1OC2)Nc1ccc(Cl)cc1 [SR-01000152099]	2.23	2.23	0.36	0.62	3.61	3.61	112.22 ± 29.96	–	–	–	–	–	29.06 ± 12.18	> 14100	EC50 (GPR139; HEK-GPR139 cells): 589 nM
CCCC1(CCC)NC(=O)N(CC(=O)NCc2ccc(Cl)cc2)C1=O [SR-01000050884]	1.88	1.88	0.36	0.73	3.46	3.46	89.45 ± 3.28	–	–	–	–	–	5.22 ± 1.83	> 15400	EC50 (GPR139; HEK-GPR139 cells): 408 nM
O=C(CC(C(=O)N1CCc2ccccc21)n1ccnc1)N1CCCCCC1 (stereo not drawn) [SR-01000144627]	3.15	3.09	–	–	–	–	93.44 ± 12.43	4.94	4.88	1.08	0.34	229	28.51 ± 2.67	> 14100	–
O=C1N2CN(Cc3ccccc3)CN3C(=O)N4CN(Cc5ccccc5)CN1C4C23 (stereo not drawn) [SR-01000090996]	2.07	2.07	–	–	–	–	117.44 ± 4.30	4.52	4.52	1.21	0.34	49.3	−5.40 ± 6.26	> 14100	–
Cc1cc(Cl)ccc1OC(C)C(=O)NNC(=O)c1ccccc1 (stereo not drawn) [SR-01000013313]	–	–	–	–	–	–	93.40 ± 11.14	4.45	4.44	0.63	0.48	13.3	–	–	Lipophilic Efficiency (logD) (parental HEK cells; HEK Agonist Activity): 1.41; Lipophilic Efficiency (logP) (parental HEK cells; HEK Agonist Activity): 1.40; Averaged Max % Response (±St. Dev.) (parental HEK cells; HEK Agonist Activity): 2.95 ± 4.76%; EC50 (parental HEK cells; [4]): > 14400 nM
